{"source": "patent US20110233146A1", "about": "“S[…] CONTROL COMPOSITION, SYSTEMS, AND RELATED METHODS THEREFOR” (Siemens Water Technologies Corp., priority 2009, published 2011)", "key": {"[1]": {"test_system": "atmospheric hydrogen sulfide", "test": "Sewerage system field trial (Example 1): atmospheric hydrogen sulfide logged at lift stations LS481 and LS480", "excerpt": "The collection system consisted of four serial master lift stations LS 479, LS482, LS 481, and LS 480 feeding wastewater to a central treatment plant WWTP as depicted in FIG. 2.\nCalcium hydroxide (with or without anthraquinone) feed rate was dependent mainly on the wastewater flow rate.\nData collected included atmospheric hydrogen sulfide collected every five minutes with monitor/loggers within the monitoring manhole at lift station LS481 and inside the lift station LS480, and dissolved sulfide grab samples at each as well as treatment plant WWTP. Nitrate residual and pH data were also collected. […] The chemical feed line was disposed to feed into the manhole about 50 feet upstream of lift station LS482.\nOver the next few weeks the controller pH set point was adjusted until the desired atmospheric pH was attained downstream at lift station LS481.\nTwo batches of a formulation of calcium hydroxide supplemented with anthraquinone were fed to determine the effectiveness of the combination for controlling odor.\nThe primary monitoring point for atmospheric hydrogen sulfide was at lift station LS481. The primary monitoring point for dissolved sulfide was the plant influent. During the period from June 23 to July 14 background data was gathered (FIG. 4) to reflect the system operating on nitrate salt feed at all four lift stations.\nThe data was tabulated for every day on which no calcium hydroxide was fed and that nitrate salt was fed at all four lift stations."}, "[2]": {"test_system": "atmospheric hydrogen sulfide", "test": "Example 2: slug dose of anthraquinone alone, all other chemical feed off at LS482, atmospheric hydrogen sulfide by OdaLog monitor/loggers", "protocol": "In order to gather the required information, the two OdaLog® hydrogen sulfide monitor/loggers were deployed in the manhole just prior to lift station LS481 prior to 10:00 a.m. on day one. At 10:00 a.m. on day one all chemical feed was turned off at lift station LS482. At 10:00 a.m. on day two a ten gallon slug of anthraquinone (AQUIT) was added to the flow through the manhole at lift station LS482. At 10:00 a.m. on day three, regular chemical feed was resumed at lift station LS482. The OdaLog® monitor/loggers were retrieved on day six and downloaded to retrieve the atmospheric hydrogen sulfide concentrations before, during, and following the trial.\nData was collected over a period of several days to include a full day prior to the test and a full day after the test as summarized in the graph of FIG. 7.\nThe average atmospheric hydrogen sulfide concentration for the 24 hour period with no chemical additive was about 1,032 ppmv. During the following 24 hour period during which the effect of the slug dose of anthraquinone, the atmospheric hydrogen sulfide concentration averaged about 999 ppmv; the hydrogen sulfide concentration was thus reduced by about 3.2 percent."}, "[3]": {"conditions": "10/14 to 10/17, after 10 gal anthraquinone slug on 10/13 at LS482, with calcium hydroxide slurry 258 GPD, nitrate salt solution 197 GPD"}}, "data": [{"smiles": "O=C1c2ccccc2C(=O)c2ccccc21", "note": "[Anthraquinone, anthraquinone]", "values": [{"measurement": "LS480 Avg Atm H2S", "setting": "[1]; [3]", "result": 305, "unit": "ppmv"}, {"measurement": "LS481 Avg Atm H2S", "setting": "[1]; [3]", "result": 100, "unit": "ppmv"}, {"measurement": "decrease in atmospheric hydrogen sulfide concentration at the downstream monitoring point", "setting": "[1]; anthraquinone added to the alkaline material used for pH adjustment, versus alkaline material without it", "result": 21, "unit": "%"}, {"measurement": "atmospheric hydrogen sulfide downstream dropped", "setting": "[1]; anthraquinone added with calcium hydroxide to the sewer upstream of the sampling point (see Table 8)", "result": 37.5, "unit": "%"}, {"measurement": "reduction in the hydrogen sulfide concentration at the downstream monitoring point lift station LS481", "setting": "[1]; one time slug of anthraquinone along with the calcium hydroxide feed, over the next four days", "result": "about 38%"}, {"measurement": "average atmospheric hydrogen sulfide concentration", "setting": "[2]; 24 hour period under the effect of a ten gallon slug of anthraquinone alone, preceding 24 hours with no chemical additive about 1,032 ppmv", "result": "about 999 ppmv"}, {"measurement": "hydrogen sulfide concentration reduced by", "setting": "[2]; ten gallon slug of anthraquinone alone versus preceding 24 hours with no chemical additive", "result": "about 3.2%"}]}]}
